As usually defined, the half-life is the time in which the quantity being followed falls by half. As a reminder, the AUC(0-t) is the area under the concentration-time curve up to a stated or last time point. For orientation: clearance means a measure of how efficiently the substance is removed, as volume per time. What is called Vd is a proportionality between amount in the body and measured concentration, not a real space.

The values below come from article PMC2362153 (British Journal of Cancer, 1999).

One series relates to mdr1a transfected cells. Also noted: method as in Tang-Wai et al, 1995. Conditions: ref Tang-Wai et al, 1995; cited from earlier work.
For series [1] the following is noted: over 48 h, ref Van Asperen et al, 1996, cited from earlier work.
The conditions of series [2]: mouse, in vivo. The text has this: (§1) Blank human plasma was obtained from healthy donors. […] All biological specimens were stored at -20C until analysis. […] However, […]
The conditions of series [3]: cited from earlier work.
A short description of series [4]: Plasma pharmacokinetics of doxorubicin and metabolites after i.v. bolus in wild-type and mdr1a(-/-) mice (HPLC). As to conditions: for half-life / concentration at 1 h / concentration at 4 h / concentration at 24 h / AUC(0-t) / clearance / Vd: female, FVB, mouse, iv; for half-life: in vivo, t1/2(), elimination half-life; for half-life / AUC(0-t) / clearance / Vd: 5 mg/kg; for concentration at 1 h / concentration at 4 h / concentration at 24 h / AUC(0-t) / clearance / Vd: plasma; for concentration at 1 h / concentration at 4 h / concentration at 24 h: 5 mg kg-1, Plasma level; for concentration at 1 h: 1 h after i.v. 5 mg kg-1 doxorubicin; for concentration at 4 h: 4 h after i.v. 5 mg kg-1 doxorubicin; for concentration at 24 h: 24 h after i.v. 5 mg kg-1 doxorubicin; for AUC(0-t): AUC(0-64), area under the plasma concentration-time curve up to 64 h; for clearance: Cl; for Vd: volume of distribution.
Source text: as §1

Series [5] can be described thus: Tissue distribution of doxorubicin and metabolites in wild-type and mdr1a(-/-) mice (HPLC). As to conditions: 24 h after drug administration.
Source text: as §1

The nature of series [6]: Urinary and faecal excretion of doxorubicin and metabolites within 96 h (metabolic cages). As to conditions: for Excretion in faeces / Excretion in urine: within 96 h after i.v. 5 mg kg-1 doxorubicin.
Experimental: Drug and metabolite concentrations were determined in plasma, tissues, urine and faeces by high-performance liquid chromatography. […] The animals were housed and handled according to institutional guidelines. Food (Hope Farms, Woerden, The Netherlands) and acidified water were given ad libitum. […] Bovine serum albumin (BSA) was obtained from Organon Teknika (Boxtel, The Netherlands). All other reagents were of analytical or Lichrosolv gradient grade and were purchased from E Merck (Darmstadt, Germany). Water was purified by the Milli-Q Plus system (Millipore, Milford, USA). Blank human plasma was obtained from healthy donors. […] The excretion study was performed with two groups of six animals, whereas in the other pharmacokinetic experiments three or four animals were used per time point. Tissue and blood samples were taken at 1, 4 and 24 h after drug adminis- tration. Blood was obtained by orbital bleeding under diethyl ether anaesthesia and collected in heparinized tubes. The animals were sacrificed by cervical dislocation to collect the following tissues: brain, skeletal muscle, colon, caecum, small gut, stomach, liver (without gall bladder), kidney, lung, spleen, heart, ovary, uterus and breast. The tissues were homogenized with a Polytron tissue homogenizer (Kinematica, Littau, Switzerland) in 4% (w/v) BSA in water, resulting in final concentrations of approximately 0.05-0.2 g tissue ml-1. Additional blood samples were obtained at 5, 15, 30 and 45 min and at 2, 8, 16, 30, 40, 56 and 64 h after drug administration. Blood samples were centrifuged (10 min, 2000 g, 4C) to separate the plasma fraction, which was stored for analysis. Urine and faeces from mice kept in Ruco Type M/1 stain- less-steel metabolic cages (Valkenswaard, The Netherlands) were collected during time intervals of 0-8, 8-24, 24-48, 48-72 and 72-96 h after drug administration. Homogenization of faeces in 4% (w/v) BSA in water (0.03-0.1 g faeces ml-1) was according to the procedure described above for tissue specimens. All biological specimens were stored at -20C until analysis. […] In brief, dilutions of faeces homogenate (20-fold) and urine (100-fold) were prepared in blank human plasma, all other specimens were used without further dilution.
[7] abbreviates: mdr1a(-/-) mice, i.v. bolus 5 mg kg-1.
The mark [8] stands for this setting: wild-type mice, i.v. bolus 5 mg kg-1.

Read-outs that look alike come from different tables or passages of the source.

Consider `CC[C@]1(O)C[C@@H]2CN(CCc3c([nH]c4ccccc34)[C@@](C(=O)OC)(c3cc4c(cc3OC)N(C)[C@H]3[C@@](O)(C(=O)OC)[C@H](OC(C)=O)[C@]5(CC)C=CCN6CC[C@]43[C@@H]65)C2)C1` [vinblastine], for which, in the series with mdr1a transfected cells, the “resistance of mdr1a transfected cells in comparison with non-P-glycoprotein-expressing parental cells” value is listed as 53 fold. Moreover, the “i.v. administered dose excreted unchanged in the faeces” value is 10% in series [1] (mdr1a(-/-) mice) and 24% in series [1] (wild-type mice).
As to `COc1cccc2c1C(=O)c1c(O)c3c(c(O)c1C2=O)C[C@@](O)(C(=O)CO)C[C@@H]3O[C@H]1C[C@H](N)[C@H](O)[C@H](C)O1` [doxorubicin], the “tolerability of dose level” value in series [2] is listed as “well tolerated”. Moreover, the “doxorubicin concentration in heart on co-administration of reversal agent” value in series [3] (ref Bellamy et al, 1995) is “up to twofold higher”. Besides, in series [4] (setting [7]), the half-life was 24.8 h, the AUC(0-t) turned out to be 2.27 µM·h, the clearance is 60 mL/min/kg and the Vd was 128 L/kg. Besides, in series [4] (setting [8]), the half-life was 15.7 h, the AUC(0-t) is 1.82 µM·h, the clearance is 75 mL/min/kg and the Vd was found to be 101 L/kg. For the same molecule, in series [4] (mdr1a(-/-) mice), the concentration at 1 h was 110 nM, the concentration at 4 h was 66.2 nM and the concentration at 24 h was determined as 28.2 nM. Moreover, in series [4] (wild-type mice), the concentration at 1 h is 130 nM, the concentration at 4 h is 70.9 nM and the concentration at 24 h worked out at 16.3 nM. Further, in series [4] (i.v. bolus 5 mg kg-1), the “AUC, mdr1a(-/-) in comparison with wild-type mice” value was 1.2 fold; the “Vd, mdr1a(-/-) in comparison with wild-type mice” value is given as 1.3 fold; the “terminal half-life, mdr1a(-/-) in comparison with wild-type mice” value is 1.6 fold. Further, the “absolute concentration in hearts of mdr1a(-/-) mice compared with wild-type” value in series [5] was “more than twofold higher”. In addition, the “dose excreted unchanged in faeces” value in series [6] (within 96 h after administration, wild-type mice) came to 5%. In addition, in series [6] (mdr1a(-/-) mice), the Excretion in faeces is listed as 4.1 percentage of the administered dose and the Excretion in urine is 15.4 percentage of the administered dose. In series [6] (wild-type mice), the Excretion in faeces is 5.2 percentage of the administered dose and the Excretion in urine is recorded as 10.9 percentage of the administered dose. Besides, the “resistance of mdr1a transfected cells in comparison with non-P-glycoprotein-expressing parental cells” value with mdr1a transfected cells is reported as 35 fold.
cyclosporin A: the “mortality on co-administration with doxorubicin” value in series [3] (non-tumour-bearing mice, ref Colombo et al, 1994, Bellamy et al, 1995, Gonzalez et al) is reported as “high mortality”.
